The results in this text go back to PubChem BioAssay (NCI).

Common to all, as to assay: NCI anticancer screen, dose series, 48 h
For test [1], the system named is LOX IMVI melanoma.
Test [2] relates to SW-620 colon.
Test [3] has as its system 786-0 renal.
For test [4], the system named is T-47D breast.
Test [5] concerns BT-549 breast.
Test [6] relates to SK-MEL-2 melanoma.
The test system of test [7] is NCI-H226 lung.
For test [8], the system named is SF-268 CNS.
The subject of test [9] is DU-145 prostate.
For test [10], the system named is UACC-257 melanoma.
The test system of test [11] is PC-3 prostate.
The subject of test [12] is HCT-116 colon.
Test [13] relates to K-562 leukemia.
For test [14], the system named is TK-10 renal.
Test [15] concerns NCI-H23 lung.
Test [16] has as its system ACHN renal.
In test [17] the test system is CAKI-1 renal.

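Method: 48-hour compound exposure of cells in 96-well plates, five concentrations, linear interpolation of endpoints. At the TGI there is no net growth.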 Where a SMILES comes first, the peptide text is derived from it. The star is where a group is joined. Boc = CC(C)(C)OC(=O)*; OBn = c1ccc(CO*)cc1

Regarding `CC(NC(=O)C(Cc1ccccc1)NC(=O)C(Cc1ccccc1)NC(=O)OC(C)(C)C)C(=O)OCc1ccccc1` (stereo not drawn) (Boc-Phe-Phe-Ala-OBn; configuration not given here), the TGI in test [1], in test [2], in test [3], in test [4], in [5] and in test [6] was over 100 µM in each case. Besides, the TGI in test [7] was 84 µM; in test [8], over 100 µM; in [9] it was over 100 µM; in test [10] it was over 100 µM; in test [11], over 100 µM; in [12], over 100 µM. For the same compound, the TGI in [13], in test [14] and in test [15] was over 100 µM in each case.

Turning to `CC(=O)N1N(c2ccc([N+](=O)[O-])cc2)C(=O)C1(C)C`, the TGI in [1] was 26.5 µM; in test [2] it was 29.2 µM; in test [3] it was 36.6 µM; in [4], over 100 µM; in test [5], 24.2 µM; in test [6] it was 37.4 µM. Moreover, the TGI in [7] was 37.6 µM; in test [8] it was 87.1 µM; in [9], over 100 µM; in test [11], 32 µM; in test [13], 60.5 µM; in test [16], 41.5 µM. Also, the TGI was 36.2 µM in test [14] and 37.8 µM in test [15].

For `NNCCc1n[nH]c(=O)n1N`, the TGI in test [1], in [2], in [3], in test [4], in test [5] and in test [7] was over 100 µM each time. For the same compound, the TGI in test [8], in test [9], in [10], in test [17], in test [11] and in [12] was over 100 µM each time. Also, the TGI in test [13], in [16] and in test [15] was over 100 µM throughout.

With `O=C1CCCCC/C1=C\c1ccc(Cl)cc1`, the TGI in test [1] is over 100 µM; in [2] it was 61.2 µM; in test [3], over 100 µM; in test [4] it was over 100 µM; in [5], over 100 µM; in [6], over 100 µM. Also, the TGI in [7] is over 100 µM; in test [8] it was 55.5 µM; in test [9], over 100 µM; in test [10] it was over 100 µM; in test [17] it was over 100 µM; in test [11] it was 48.4 µM. For the same compound, the TGI in test [12], in test [16], in test [14] and in test [15] was over 100 µM throughout.

Consider `CC12c3c4cc(Br)cc3Oc3cc(Br)cc(c31)Oc1cc(Br)cc(c12)O4`, for which the TGI in test [1] is 51.1 µM; in [2] it was over 100 µM; in [3], 44.4 µM; in test [4], over 100 µM; in test [5] it was 52.7 µM; in [6], 67.8 µM. The TGI in test [7] is 41.3 µM; in test [8], 28.2 µM; in [9], 49.1 µM; in test [10] it was over 100 µM; in [11], 55.3 µM; in test [12], over 100 µM. The TGI in [13], in test [16], in [14] and in test [15] was over 100 µM in each case.

Take `NC(CCC(=O)O)(CCC(=O)O)CCC(=O)O`: the TGI in [2], in [3], in test [4], in test [5], in test [6] and in test [7] was over 100 µM in each case. The TGI in test [8], in test [9], in test [10], in [17], in test [11] and in test [12] was over 100 µM each time. Further, the TGI in test [13], in test [16], in test [14] and in test [15] was over 100 µM throughout.

As to `COc1ccc(C(=O)/C=C/c2cccnc2)cc1OC`, the TGI in test [1] was found to be 3.81 µM; in [3] it was 14.1 µM; in test [4], 22 µM; in test [5] it was 19.3 µM; in [6] it was 27.3 µM; in [7] it was 24.8 µM. In addition, the TGI in test [8] stood at 26.7 µM; in test [9], 27.8 µM; in test [10] it was 29 µM; in test [17] it was 15.7 µM; in test [11] it was 28 µM; in [12], 16.3 µM. Also, the TGI came to 43.8 µM in test [13], 26.7 µM in [16], 29.1 µM in test [14] and 22.9 µM in test [15].

Regarding `O=C(Cc1ccccc1)NCCCN(CCCCN(CCCNC(=O)Cc1ccccc1)C(=O)OCc1ccccc1)C(=O)OCc1ccccc1`, the TGI in test [1], in test [2], in test [3], in [4], in [5] and in [6] was over 100 µM in each case. Also, the TGI in test [7], in test [8], in [9], in [10], in test [11] and in test [12] was over 100 µM throughout. In addition, the TGI in [13], in [16], in test [14] and in test [15] was over 100 µM in each case.

In the case of `CC1=N[C@](C)(C2CC3C=CC2C3=O)COC1=O` (some centres undefined), the TGI in test [2], in test [3], in [4], in [5], in test [7] and in test [8] was over 100 µM in each case. The TGI in test [9], in test [10], in test [17], in test [11], in test [12] and in test [13] was over 100 µM throughout. Besides, the TGI in [16], in [14] and in test [15] was over 100 µM in each case.
